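Tested at 5 concentrations; 48 h exposure; 96-well plates; endpoints linearly interpolated, else capped at highest concentration. At the GI50, growth is halved.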 Activity calls are given as the source filed them. Rule as the data show it: active = GI50 up to about 1.1 µM and inactive = higher.

Some test systems named below: 786-0; CAKI-1; COLO 205; DU-145; HCT-116; HCT-15; HL-60; LOX IMVI; MCF7; MDA-MB-231; MDA-N; MOLT-4; NCI-H226; NCI-H460; OVCAR-3; OVCAR-5; PC-3; SF-268; SK-MEL-28; TK-10.
Experiment in all cases: NCI tumour cell line growth inhibition, 48 h

Take `Cc1cc(C)c2c(=N)c3ccccc3n(CCCCCCCCn3c4ccccc4c(=N)c4c(C)cc(C)nc43)c2n1`: the GI50 in the test on 786-0 is 0.931 µM (active); in the test on CAKI-1, 1.7 µM (inactive); in the test on COLO 205, 1.47 µM (inactive); in the test with DU-145 it was 1.64 µM (inactive); with HCT-116 it was 0.353 µM (active); in the test on HCT-15 it was 0.2 µM. Besides, the GI50 is 0.433 µM (active) with HL-60; 0.515 µM (active) in the test with LOX IMVI; 0.586 µM (active) in the test with MCF7; 1.84 µM (inactive) in the test on MDA-MB-231; 1.56 µM (inactive) with MDA-N; 0.258 µM (active) in the test on MOLT-4. The GI50 in the test on NCI-H226 is 1.55 µM (inactive); in the test with NCI-H460 it was 0.184 µM (active); in the test with OVCAR-3, 1.76 µM (inactive); in the test with OVCAR-5, 1.89 µM (inactive); in the test with PC-3, 1.38 µM (inactive); in the test with SF-268, 1.74 µM (inactive). The GI50 in the test on SK-MEL-28 is 1.6 µM (inactive); with TK-10, 1.93 µM (inactive).

For `CC(C)(C)C1CCC2c3c([nH]c4ccccc34)C3C(=O)N(c4ccc5c(c4)C(=O)c4ccccc4C5=O)C(=O)C3C2C1` (stereo not given), the GI50 in the test with 786-0 is > 100 µM (inactive); with CAKI-1, > 100 µM (inactive); in the test with COLO 205, > 100 µM (inactive); in the test with DU-145, > 100 µM (inactive); with HCT-116, > 100 µM (inactive); in the test on HCT-15, > 100 µM. The GI50 with HL-60, with LOX IMVI, with MCF7, in the test with MDA-MB-231, with MDA-N and in the test with MOLT-4 was > 100 µM (inactive) throughout. The GI50 with NCI-H226, in the test with NCI-H460, with OVCAR-3, in the test on OVCAR-5, in the test on PC-3 and in the test on SF-268 was > 100 µM (inactive) in each case. Further, the GI50 with SK-MEL-28 and in the test on TK-10 was > 100 µM (inactive) in each case.

Take `CC(=O)OC(Cc1cc(C=C(C(F)(F)F)C(F)(F)F)cc(C)n1)(C(F)(F)F)C(F)(F)F`: the GI50 is 0.839 µM (active) with 786-0; 1.77 µM (inactive) in the test with CAKI-1; 0.759 µM (active) with COLO 205; 2.48 µM (inactive) in the test on DU-145; 1.1 µM (active) in the test on HCT-116; 0.975 µM in the test on HCT-15. The GI50 was 0.124 µM (active) in the test with HL-60; 1.14 µM (inactive) in the test with LOX IMVI; 0.14 µM (active) with MCF7; 1.5 µM (inactive) with MDA-MB-231; 1.55 µM (inactive) with MDA-N; < 0.01 µM (active) with MOLT-4. Further, the GI50 is 1.78 µM (inactive) in the test on NCI-H226; 1.99 µM (inactive) with NCI-H460; 1.36 µM (inactive) in the test with OVCAR-3; 2.18 µM (inactive) in the test on OVCAR-5; 1.77 µM (inactive) in the test on PC-3; 1.74 µM (inactive) with SF-268. The GI50 with SK-MEL-28 was 1.38 µM (inactive); in the test with TK-10 it was 2.8 µM (inactive).

Consider `CN(CCN1CCCC1)C1CCc2cc(Cl)c(Cl)cc2C1` (stereo not given), for which the GI50 with 786-0 is 14.7 µM (inactive); with CAKI-1, 17.3 µM (inactive); in the test with COLO 205, 3.6 µM (inactive); in the test on DU-145, 13.2 µM (inactive); in the test on HCT-116, 12.5 µM (inactive); in the test on HCT-15, 13.2 µM. Further, the GI50 in the test on HL-60 was 12.6 µM (inactive); with LOX IMVI it was 15.1 µM (inactive); in the test on MCF7, 14.8 µM (inactive); in the test on MDA-MB-231, 17.6 µM (inactive); in the test on MDA-N, 9.2 µM (inactive); in the test with MOLT-4, 24.8 µM (inactive). Further, the GI50 in the test on NCI-H226 is 16.2 µM (inactive); in the test with NCI-H460, 16.6 µM (inactive); with OVCAR-3, 17.1 µM (inactive); in the test on OVCAR-5, 15.3 µM (inactive); with PC-3, 20 µM (inactive); with SF-268, 17.1 µM (inactive). In addition, the values for the GI50 with SK-MEL-28 and with TK-10 were 18.5 µM (inactive) and 17.1 µM (inactive), respectively.

In the case of `C/C=C(/C)C(=O)O[C@H]1[C@H](O)CC(c2ccc3c(c2O)C(=O)C2=C(O)C4(OC)C(=O)C(C(N)=O)=C(O)[C@H](CC(=O)c5ccccc5O)C4CC2[C@@]3(C)OC)O[C@@H]1C` (stereo not given in full), the GI50 in the test on 786-0 is 0.00479 µM (active); in the test on CAKI-1 it was 0.0124 µM (active); in the test with COLO 205 it was 0.0104 µM (active); with DU-145, 0.0265 µM (active); in the test on HCT-116 it was 0.00121 µM (active); with HCT-15, 0.00507 µM. Also, the GI50 was 0.0248 µM (active) in the test with HL-60; 0.0035 µM (active) in the test on LOX IMVI; 0.00363 µM (active) in the test on MCF7; 0.0078 µM (active) with MDA-MB-231; 0.0272 µM (active) in the test with MDA-N; 0.148 µM (active) in the test on MOLT-4. The GI50 in the test with NCI-H226 was 0.0202 µM (active); with NCI-H460, 0.00178 µM (active); with OVCAR-3, 0.00454 µM (active); with OVCAR-5, 0.0546 µM (active); in the test with PC-3, 0.00637 µM (active); with SF-268 it was 0.0057 µM (active). Moreover, the GI50 in the test with SK-MEL-28 is 0.653 µM (active); with TK-10 it was 0.00817 µM (active).

With `O=C(O)c1ccccc1C1CCCc2c1[nH]c1ccccc21` (stereo not given), the GI50 in the test on 786-0 was > 100 µM (inactive); in the test on CAKI-1 it was 72.6 µM (inactive); with COLO 205, 74 µM (inactive); in the test with DU-145, > 100 µM (inactive); in the test on HCT-116 it was 33.8 µM (inactive); in the test with HCT-15 it was 44.4 µM. For the same molecule, the GI50 in the test with HL-60 was 33.2 µM (inactive); in the test with LOX IMVI, 44.2 µM (inactive); in the test on MCF7 it was 30.1 µM (inactive); in the test on MDA-MB-231, 37.3 µM (inactive); in the test on MDA-N it was 27.6 µM (inactive); in the test on MOLT-4, 27.2 µM (inactive). The GI50 in the test on NCI-H226 is > 100 µM (inactive); with NCI-H460, 69.7 µM (inactive); with OVCAR-3, 83.4 µM (inactive); in the test on OVCAR-5, > 100 µM (inactive); in the test with PC-3, 46.9 µM (inactive); in the test with SF-268 it was 66.1 µM (inactive). The GI50 with SK-MEL-28 is 96.6 µM (inactive); with TK-10, > 100 µM (inactive).

For `CCNC(=O)/C(=C/c1ccc(OC)cc1)c1cc(OC)c(OC)c(OC)c1`, the GI50 with 786-0 is 8.85 µM (inactive); in the test with CAKI-1, 6.03 µM (inactive); in the test with COLO 205 it was 5.11 µM (inactive); with DU-145, 13.3 µM (inactive); in the test on HCT-116, 6.18 µM (inactive); in the test on HCT-15 it was 4.11 µM. Moreover, the GI50 was 2.96 µM (inactive) in the test with HL-60; 8.39 µM (inactive) in the test on LOX IMVI; 4.84 µM (inactive) in the test with MCF7; 6.41 µM (inactive) in the test on MDA-MB-231; 1.58 µM (inactive) in the test with MDA-N; 7.35 µM (inactive) in the test on MOLT-4. Further, the GI50 is 40.7 µM (inactive) in the test on NCI-H226; 5.31 µM (inactive) in the test on NCI-H460; 3.78 µM (inactive) with OVCAR-3; 63.8 µM (inactive) in the test on OVCAR-5; 3.52 µM (inactive) in the test on PC-3; 13.8 µM (inactive) with SF-268. The GI50 with SK-MEL-28 is 5.79 µM (inactive); in the test with TK-10, 20.5 µM (inactive).

These data come from ChEMBL document CHEMBL1201862, “PubChem BioAssay data set” (2004).
